In patent US8119651B2, “Compositions useful especially for treatment or prevention of metabolic syndrome” (Biotie Therapies Corp., priority 2004, dated 2012):
“And” between values parts separate entries of the source, which are not always exact repeats. Equal values may be shown once. Read-outs that look alike come from different tables or passages of the source.

Key:
[1] = biological target: T1, SSAO activity of VAP-1 transfected CHO cells (Homo sapiens, UniProt Q16853); assay: Fluorometric detection of SSAO-mediated H2O2 formation (Amplex Red); type: cell-based; details: for Inhibition of SSAO activity (controls): 1 mg/ml, VAP-1 transfected CHO cells
T1 construct: expressed in transfected cells; host or cells: CHO cells
T1 sequence (Q16853 1-763): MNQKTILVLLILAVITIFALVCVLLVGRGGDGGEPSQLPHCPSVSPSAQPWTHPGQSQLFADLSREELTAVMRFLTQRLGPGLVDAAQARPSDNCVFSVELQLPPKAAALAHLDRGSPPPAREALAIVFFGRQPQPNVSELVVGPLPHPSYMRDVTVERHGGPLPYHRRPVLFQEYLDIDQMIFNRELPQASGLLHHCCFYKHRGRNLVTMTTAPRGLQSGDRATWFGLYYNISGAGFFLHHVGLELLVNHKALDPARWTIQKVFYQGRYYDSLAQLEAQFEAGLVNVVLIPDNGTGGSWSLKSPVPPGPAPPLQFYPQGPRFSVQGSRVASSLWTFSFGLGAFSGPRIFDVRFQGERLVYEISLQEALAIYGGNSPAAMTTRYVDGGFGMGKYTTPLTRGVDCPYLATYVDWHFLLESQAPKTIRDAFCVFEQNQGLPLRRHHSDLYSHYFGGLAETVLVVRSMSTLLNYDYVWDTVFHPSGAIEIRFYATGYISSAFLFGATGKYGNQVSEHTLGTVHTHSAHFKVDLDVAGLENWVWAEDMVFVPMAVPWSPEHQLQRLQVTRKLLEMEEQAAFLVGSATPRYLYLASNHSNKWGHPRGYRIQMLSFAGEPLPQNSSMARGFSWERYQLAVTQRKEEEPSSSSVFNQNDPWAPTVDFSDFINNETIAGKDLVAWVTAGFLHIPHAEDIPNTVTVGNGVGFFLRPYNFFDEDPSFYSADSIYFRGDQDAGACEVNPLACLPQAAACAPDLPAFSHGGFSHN
Procedure: Molecular Probes Europe BV), a highly sensitive and stable probe for H2O2. […] Catalytic reaction was initiated by addition of benzylamine as substrates and H2O2-detecting mixture containing horseradish peroxidase (final concentration 0.8 U/ml) and Amplex Red reagent (60 μM). The plates were incubated for 1-2 hours at 37° C. in the final volume of 250 μl, the bathing medium was clarified by centrifugation and placed in aliquots (200 μl) into white non-phosphorescent microplates (Cliniplate). Fluorescence intensity of the samples was measured (excitation, 545 nm; emission, 590 nm; Tecan ULTRA fluoropolarometer) and H2O2 concentration was calculated from calibration curves generated by serial dilutions of either standard H2O2 or resorufin, the product of the Amplex Red reaction (Molecular Probes).

[2] = biological target: T2, amine oxidase, copper containing 3 (AOC3) (Homo sapiens, UniProt Q16853); assay: Enzyme inhibiting activity of FP-1113 versus thiamine (FIG. 3)
T2 sequence (Q16853 1-763): T1 sequence (Q16853 1-763)
Procedure: The enzyme inhibiting activity was tested as described above.

serum VAP-1/SSAO [3] = biological target: serum VAP-1/SSAO (Homo sapiens, UniProt Q16853)
Procedure: Amine oxidase activity was assayed radiochemically using [7-^14C]-benzylamine hydrochloride (spec. act. 57 mCi/mmol, Amersham) as a substrate and 25 microliters of serum. […] Potential inhibition of serum VAP-1/SSAO enzymatic activity was measured in presence of indicated concentrations of thiamine. Finally, enzymatic activity of serum VAP-1/SSAO of six volunteers was measured before and after eating vitamin B1 100 mg/day for 5 to 9 days. Similarly serum VAP-1/SSAO activity of four volunteers eating benfothiamine 200 mg/day for four days was measured.

serum VAP-1/SSAO [4] = biological target: T3, serum VAP-1/SSAO (Homo sapiens, UniProt Q16853); assay: Serum VAP-1/SSAO enzymatic activity of volunteers before and after oral intake
T3 sequence (Q16853 27-763 limits assumed): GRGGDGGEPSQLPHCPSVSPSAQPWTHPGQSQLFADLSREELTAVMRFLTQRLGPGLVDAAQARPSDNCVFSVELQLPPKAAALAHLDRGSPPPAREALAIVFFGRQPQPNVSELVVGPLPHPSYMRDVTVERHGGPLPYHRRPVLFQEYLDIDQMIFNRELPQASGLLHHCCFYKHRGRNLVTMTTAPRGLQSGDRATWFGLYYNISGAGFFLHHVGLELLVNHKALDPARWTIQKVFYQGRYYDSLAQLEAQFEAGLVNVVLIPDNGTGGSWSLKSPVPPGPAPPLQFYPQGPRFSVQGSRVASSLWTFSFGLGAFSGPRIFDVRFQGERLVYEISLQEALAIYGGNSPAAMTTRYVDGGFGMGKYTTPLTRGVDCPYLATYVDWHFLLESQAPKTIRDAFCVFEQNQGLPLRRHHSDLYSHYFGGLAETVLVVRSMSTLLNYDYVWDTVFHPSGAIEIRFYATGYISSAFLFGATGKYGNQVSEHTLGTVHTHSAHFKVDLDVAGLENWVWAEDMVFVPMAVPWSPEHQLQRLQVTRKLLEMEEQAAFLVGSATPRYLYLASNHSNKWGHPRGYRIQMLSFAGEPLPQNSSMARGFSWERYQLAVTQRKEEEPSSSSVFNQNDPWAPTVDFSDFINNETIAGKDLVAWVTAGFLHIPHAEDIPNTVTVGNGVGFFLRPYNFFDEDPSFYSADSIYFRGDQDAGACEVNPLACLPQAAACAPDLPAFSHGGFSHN

mice [5] = assay: Systolic arterial blood pressure and heart rate, tail cuff method; type: in vivo; details: methylamine supplementation
Procedure: Systolic arterial blood pressure and heart rate were measured in all of the groups using the tail cuff method. […] A trend for elevated blood pressure was also found with the transgene alone.

mice [6] = assay: Aorta surface area positive for Oil Red O staining (atherosclerosis); type: in vivo; details: methylamine supplementation, versus untreated controls
Procedure: The percentage of aorta surface area positive for Oil Red O staining was determined for the mice in each group.

[7] = test system: mTIEhVAP-1 transgenic mice; assay: Glucose challenge of mTIEhVAP-1 transgenic and non-transgenic mice; type: in vivo; details: methylamine supplemented water; 2.0 g IP glucose/kg
Procedure: (§1) The increases in blood glucose over fasting blood glucose levels at 30, 60, 90, and 120 minutes after glucose challenge (2.0 g IP glucose/kg body weight) are expressed as mean±SEM. FIG. 1A: Glucose challenge of 26 week old non-transgenic (open symbols) and mTIEhVAP-1 transgenic mice (filled symbols) with normal tap water (solid lines) or with methylamine supplemented water (dashed lines). FIG. 1B: Glucose challenge of 10-12 week old transgenic mice with normal tap water (solid line) followed by 16 days of treatment with methylamine supplemented water (squares and dashed lines), and methylamine supplemented water as well as SSAO inhibitor injections (triangles and dashed lines). FIG. 1C: The mean±SEM percent of glycosylated hemoglobin (HbAlc) was determined from the blood of fasted, 57-59 week old non-transgenic (white bars) and transgenic (black bars) mice with (gray strips) or without oral methylamine supplementation. […]
The increases in blood glucose over fasting blood glucose levels at 30, 60, 90, and 120 minutes after glucose challenge (2.0 g IP glucose/kg body weight) are expressed as mean+SEM. […] (C) The mean±SEM percent of glycosylated hemoglobin (HbAlc) was determined from the blood of fasted, 57-59 week old non-transgenic (white bars) and transgenic (black bars) mice with (gray strips) or without oral methylamine supplementation. […]

mice [8] = assay: Glycosylated hemoglobin (HbAlc) in blood of fasted mice; type: in vivo; details: oral methylamine supplementation, 57-59 week old mice
Procedure: as §1, with “mean+SEM. (A)” for “mean±SEM. FIG. 1A:”, “Significant effects on the rate of glucose clearance were identified by comparing the areas under the curve (AUC) of individual mice with an ANOVA (methylamine p=0.0002 and methylamine/transgene interaction p=0.046) and by comparing glucose levels at individual time points with unpaired Student's t-tests (asterisks, p<0.01 versus non-transgenic mice with normal water; crosses, p<0.02 versus non-transgenic mice with methylamine). (B)” for “FIG. 1B:”, “[…] (C)” for “FIG. 1C:”

[9] = volunteers, 100 mg/day for 5 to 9 days

CC1(C)S[C@@H]2[C@H](NC(=O)[C@H](N)c3ccccc3)C(=O)N2[C@H]1C(=O)O [ampicillin]
Inhibition of SSAO activity (controls) [1]: did not inhibit the activity

Cc1c(CCO)sc[n+]1Cc1ccccc1N.Cl.[Cl-] [FP-1113, 3-(2-aminobenzyl)-5-(2-hydroxyethyl)-4-methyl-thiazolium Chloride Hydrochloride]
SSAO inhibition compared with thiamine [2]: stronger SSAO-inhibitor than thiamine

Cc1ncc(C[n+]2csc(CCO)c2C)c(N)n1 [Thiamine, thiamine]
Decrease of serum VAP-1/SSAO activity in vitro (serum VAP-1/SSAO [3]; 1 mg/ml): 87% | Decrease of serum VAP-1/SSAO activity in vitro (serum VAP-1/SSAO [3]; 200 micrograms/ml): 32% | Decrease of serum VAP-1/SSAO activity in vitro (serum VAP-1/SSAO [3]; 400 micrograms/ml): 39% | Decrease of serum VAP-1/SSAO activity in vitro (serum VAP-1/SSAO [3]; 800 micrograms/ml): 70% | Decrease of VAP-1 enzyme activity at the end of the experiment, mean of responders (serum VAP-1/SSAO [4]; [9]): 19% | Volunteers responding (serum VAP-1/SSAO [4]; [9]): Four of the six volunteers responded | Decrease of VAP-1 enzyme activity at the end of the experiment, individual responders (serum VAP-1/SSAO [4]; volunteers, 100 mg/day for 5 to 9 days, listed as vitamin B1): 25% and 2% and 32% and 16% | inhibition at 63 µg/mL ([1]; CHO, thiamine 63 μg/ml, VAP-1 transfected cells): 10.5 ± 8.5% | inhibition at 125 µg/mL ([1]; CHO, thiamine 125 μg/ml, VAP-1 transfected cells): 26.5 ± 11% | inhibition at 175 µg/mL ([1]; CHO, thiamine 175 μg/ml, VAP-1 transfected cells): 35.5 ± 2.5% | inhibition at 250 µg/mL ([1]; CHO, thiamine 250 μg/ml, VAP-1 transfected cells): 42 ± 2% | inhibition at 375 µg/mL ([1]; CHO, thiamine 375 μg/ml, VAP-1 transfected cells): 47 ± 9% | inhibition at 500 µg/mL ([1]; CHO, thiamine 500 μg/ml, VAP-1 transfected cells): 61.5 ± 2.5%

penicillin
Inhibition of SSAO activity (controls) [1]: did not inhibit the activity

CN [methylamine]
Heart rate (mice [5]): did not affect heart rate | Systolic arterial blood pressure (mice [5]): significantly elevated blood pressure | Percentage of lesion formation in aorta (mice [6]): increased the percentage of lesion formation | Glucose tolerance after glucose challenge [7]: enhance glucose tolerance | HbAlc levels (mice [8]): decreased

C/C(=C(\CCOP(=O)(O)O)SC(=O)c1ccccc1)N(C=O)Cc1cnc(C)nc1N [benfothiamine, benfotiamine]
Decrease of SSAO activity, each individual (serum VAP-1/SSAO [4]; four volunteers, 200 mg/day for four days): 9% and 24% and 8% and 27%
